“Also recorded” adds a separate entry of the source. Structures can show the parent of a compound that is named as a salt.
Key:
male Sprague-Dawley rats = experiment: Forced swim test (FST): latency to become immobile and behavioral sampling; type: in vivo, rat; conditions: re-test (day 2), DMI 10 mg/kg, FLX 20 mg/kg; for latency to become immobile: 3 IP injections, CIT 5.0 mg/kg; for occurrences of climbing (behavioral sampling) / occurrences of swimming (behavioral sampling) / occurrences of immobility (behavioral sampling): CIT 5.0 mg/kg IP
Method: The behavioral effects of the combination of uridine and omega-3 fatty acids were also evaluated in rats using the forced swim test (FST). This assay identifies in rodents treatments that have antidepressant effects in humans (Porsolt et al. Nature 266:730-732 1977; Carlezon et al. Biol. Psychiatry 51:882-889, 2002). Uridine was administered using systemic injection while omega-3 fatty acids were administered by supplementation within the diet for various periods of time (3, 10, or 30 days). The effects of uridine in rats maintained on the omega-3 fatty acid-enriched diet were also evaluated to determine if these effects were additive. […] The efficacy of each treatment in the FST was evaluated using two separate scoring methods: latency to become immobile, a simple and rapid method that identifies agents with antidepressant effects ([…] et al. J Neurosci 21:7397-7403 2001), and behavioral sampling, a more complex method that differentiates antidepressant drugs according to their pharmacological mechanisms (Detke et al. Psychopharmacology 121:66-72 1995). Finally, treatments with antidepressant-like effects in the FST were evaluated for non-specific effects on activity in an open field, which might complicate interpretation of the data from the swimming studies. Rats: A total of 197 male Sprague-Dawley rats (Charles River Laboratories, Boston Mass.) were used in these studies. The rats were housed in groups of four and weighed 325-375 gm at the time of behavioral testing. Rats were maintained on a 12 h light (0700-1900 h)-12 h dark cycle with free access to food and water except during testing. Experiments were conducted in accordance with the 1996 Guide for the Care and Use of Laboratory Animals (NIH) and McLean Hospital policies. Drugs: Dosages of desipramine HCl (DMI), fluoxetine HCl (FLX), citalopram HBr (CIT), and uridine (URI) were administered in a distilled water vehicle (VEH) at a volume of 1 cc/kg. All drugs were purchased from RBI-Sigma (St. Louis, Mo.) except CIT, which was a gift of Forest Laboratories (New York, N.Y.). […] The diets were equivalent in overall fat, protein, carbohydrate, and caloric content. Forced Swim Test (FST): One hundred-sixty seven rats were used in the FST studies, which were conducted as described previously (Carlezon et al. Biol. Psychiatry 51:882-889, 2002) with minor modifications. The FST is a two-day procedure in which rats swim under conditions in which escape is not possible. On the first day, rats are placed in clear, 65 cm tall-25 cm diameter cylinders filled to 48 cm with 25° C. water. The rats initially struggle to escape from the water, but eventually they adopt a posture of immobility in which they make only the movements necessary to keep their heads above water. After 15 min of forced swimming, the rats are removed from the water, dried with towels, and placed in a warmed enclosure for 30 min. The cylinders are emptied and cleaned between rats. When the rats are re-tested 24 hours later under identical conditions in 5 min sessions, immobility is increased. Treatment with standard antidepressant drugs within the 24 hr period between the first exposure to forced swimming and re-testing can attenuate facilitated immobility, an effect correlated with antidepressant efficacy in humans (Porsolt et al. Nature 266:730-732 1977; Detke et al. Psychopharmacology 121:66-72 1995, Carlezon et al. Biol. Psychiatry 51:882-889, 2002). Rats tested with DMI, FLX, CIT, or URI received 3 separate intraperitoneal (IP) injections of drug (or VEH), at 1 hr, 19 hr, and 23 hr after the first exposure to forced swimming. This commonly used regimen is sensitive to the antidepressant-like effects of many standard agents (Porsolt et al. Nature 266:730-732 1977; Detke et al. Psychopharmacology 121:66-72 1995; Carlezon et al. Biol. Psychiatry 51:882-889, 2002). […] There were 7-12 rats per treatment condition, and separate rats were used for each treatment regimen. […]

depressed subjects = experiment: 17-item Hamilton Depression Rating Scale (HDRS), eight weeks of treatment; type: in vivo, human
Method: In a second study, twelve depressed subjects (mean age 40) received 500 mg of an oral formulation of CDP-choline twice daily for eight weeks.

[1] = eight weeks, CDP-choline 500 mg twice daily, fluoxetine 20 mg/day

Compound: CN(C)CCCC1(c2ccc(F)cc2)OCc2cc(C#N)ccc21 (stereo not shown) [CIT, citalopram HBr]
- latency to become immobile (male Sprague-Dawley rats; HBr): increased latencies to become immobile
- occurrences of climbing (behavioral sampling) (male Sprague-Dawley rats): without affecting climbing
- occurrences of swimming (behavioral sampling) (male Sprague-Dawley rats): increased swimming
- occurrences of immobility (behavioral sampling) (male Sprague-Dawley rats; HBr): reduced immobility; also recorded: decreased immobility

Compound: CNCCCN1c2ccccc2CCc2ccccc21 [DMI, desipramine HCl]
- latency to become immobile (male Sprague-Dawley rats; HCl): increased latencies to become immobile
- occurrences of climbing (behavioral sampling) (male Sprague-Dawley rats; HCl): increased climbing; also recorded: increases in occurrences of climbing
- occurrences of immobility (behavioral sampling) (male Sprague-Dawley rats; HCl): reduced immobility; also recorded: decreases in occurrences of immobility
- occurrences of swimming (behavioral sampling) (male Sprague-Dawley rats; HCl): without affecting occurrences of swimming

Compound: CNCCC(Oc1ccc(C(F)(F)F)cc1)c1ccccc1 (stereo not shown) [fluoxetine, fluoxetine HCl]
- mean 17-item HDRS score with eight weeks of treatment (depressed subjects; CDP-choline 500 mg oral twice daily, fluoxetine open label 20 mg/day, p<0.0001): 11±6
- mean 17-item HDRS score before treatment (depressed subjects; baseline, CDP-choline 12 subjects, fluoxetine 41 subjects): 21±4
- complete responses (subjects/total) (depressed subjects; [1]): 17/41
- complete responses, share of subjects (depressed subjects; [1]): 41%
- latency to become immobile (male Sprague-Dawley rats; listed as FLX, HCl): increased latencies to become immobile
- occurrences of climbing (behavioral sampling) (male Sprague-Dawley rats): without affecting climbing
- occurrences of swimming (behavioral sampling) (male Sprague-Dawley rats): increased swimming
- occurrences of immobility (behavioral sampling) (male Sprague-Dawley rats; listed as FLX, HCl): reduced immobility; also recorded: decreased immobility

Reference: US20100197628A1, “METHODS OF TREATING PSYCHIATRIC, SUBSTANCE ABUSE, AND OTHER DISORDERS USING COMBINATIONS CONTAINING OMEGA-3 FATTY ACIDS” (priority 2003, published 2010)
